From ChEMBL document CHEMBL1201862, “PubChem BioAssay data set” (2004) come the findings set out here.

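Protocol summary: plate cells (96-well), add compound at 5 concentrations, incubate 48 h, interpolate endpoints linearly. GI50 is the concentration that inhibits growth by half.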 Activity calls are given as the source filed them. Rule as the data show it: active = GI50 up to about 1.1 µM and inactive = higher.

Experiment in all cases: NCI-60 cell line screen, 48 h
Assay [1] concerns K562.
Assay [2] has as its system SW-620.
Assay [3] relates to SN12C.
For assay [4], the system named is M14.
For assay [5], the system named is HT-29.
Assay [6] deals with SNB-19.
In assay [7] the test system is HOP-92.
The subject of assay [8] is HL-60.
For assay [9], the system named is KM12.
In assay [10] the test system is U-251.
In assay [11] the test system is LOX IMVI.
The subject of assay [12] is A498.
The subject of assay [13] is SF-295.
Assay [14] has as its system UACC-62.
Assay [15] deals with SK-MEL-5.
Assay [16] relates to MCF7.
The subject of assay [17] is NCI-H226.
The subject of assay [18] is SNB-75.
The test system of assay [19] is TK-10.

Regarding `CC(C)=CCC1=C(OCC(=O)O)C(=O)c2ccccc2C1=O`, the GI50 in assay [1] is 33 µM (inactive); in [2], 23 µM (inactive); in [3], 24.5 µM (inactive); in [4], 33 µM (inactive); in assay [5], 47.2 µM (inactive); in assay [6] it was 27.9 µM (inactive). For the same compound, the GI50 is 47.4 µM (inactive) in assay [7]; 14.5 µM (inactive) in assay [8]; 25.2 µM (inactive) in assay [9]; 30.3 µM (inactive) in [10]; 32.6 µM (inactive) in [11]; 76.7 µM (inactive) in assay [12]. The GI50 in assay [13] was 11.9 µM (inactive); in assay [14], 19 µM (inactive); in [15], 19.5 µM (inactive); in [16], 25.1 µM (inactive); in [17], 32.4 µM (inactive); in [18], 24.4 µM (inactive). Moreover, the GI50 in assay [19] is > 100 µM (inactive).
Turning to `Clc1ccc2oc(CCC3CCCCC3)nc2c1`, the GI50 in assay [1] was 38.2 µM (inactive); in assay [2], 31.8 µM (inactive); in [3], 21.9 µM (inactive); in assay [4], 32 µM (inactive); in [5], 23.5 µM (inactive); in [6], 42.3 µM (inactive). In addition, the GI50 in assay [7] is 35.2 µM (inactive); in assay [8], 16.3 µM (inactive); in [9] it was 26.4 µM (inactive); in assay [10], 19.3 µM (inactive); in assay [11], 4.7 µM (inactive); in assay [12], 37.8 µM (inactive). Besides, the GI50 in assay [13] is 22 µM (inactive); in [14], 60.4 µM (inactive); in [15], 16.9 µM (inactive); in assay [16], 26.1 µM (inactive); in assay [17] it was 19.2 µM (inactive); in assay [18] it was 23 µM (inactive). In addition, the GI50 in assay [19] is 26.4 µM (inactive).
As to `CC(C)(C)c1cc(C(=O)/C=C/c2c(Cl)cccc2Cl)cc(C(C)(C)C)c1O`, the GI50 in assay [1] is 18.9 µM (inactive); in assay [2] it was 13.3 µM (inactive); in assay [3] it was 21 µM (inactive); in assay [4], 20.3 µM (inactive); in assay [5] it was 10.2 µM (inactive); in [6], 11.9 µM (inactive). For the same compound, the GI50 is 25.8 µM (inactive) in [7]; 3.7 µM (inactive) in [8]; 13.1 µM (inactive) in assay [9]; 11.9 µM (inactive) in assay [10]; 13.6 µM (inactive) in assay [11]; 27.2 µM (inactive) in assay [12]. Moreover, the GI50 in assay [13] is 11.5 µM (inactive); in [14] it was 12.8 µM (inactive); in assay [15], 11.4 µM (inactive); in [16], 8.34 µM (inactive); in assay [17], 17.8 µM (inactive); in [18] it was 4.93 µM (inactive). In addition, the GI50 in [19] was 19.4 µM (inactive).
With `NC(=O)c1nc[nH]c1/N=N/SCC(N)C(=O)O` (stereo not given), the GI50 in [1] was 2.01 µM (inactive); in assay [2], 16.4 µM (inactive); in assay [3], 6.73 µM (inactive); in [4], 2.81 µM (inactive); in assay [5] it was > 100 µM (inactive); in assay [6] it was > 100 µM (inactive). Moreover, the GI50 is 15.7 µM (inactive) in assay [7]; 1.26 µM (inactive) in [8]; 14.2 µM (inactive) in [9]; > 80.7 µM (inactive) in assay [10]; 2.61 µM (inactive) in assay [11]; > 100 µM (inactive) in [12]. Moreover, the GI50 in [13] was 6.32 µM (inactive); in [14], 6.31 µM (inactive); in [15] it was 57 µM (inactive); in [16], 97.7 µM (inactive); in assay [17], > 44.8 µM (inactive); in assay [18], 24.3 µM (inactive). Also, in [19], the GI50 is 5.32 µM (inactive).
As to `COc1nc2ncc([C@@H](OC(C)=O)[C@@H](COC(C)=O)OC(C)=O)nc2c(=O)n1C`, the GI50 in assay [1], in assay [2], in assay [3], in assay [4], in assay [5] and in assay [6] was > 100 µM (inactive) in each case. In addition, the GI50 in [7] is > 100 µM (inactive); in assay [8], 24.3 µM (inactive); in [9], > 100 µM (inactive); in [10], > 100 µM (inactive); in [11], > 100 µM (inactive); in assay [12], > 100 µM (inactive). In addition, the GI50 in assay [13], in [14], in assay [15], in [16], in assay [17] and in assay [18] was > 100 µM (inactive) each time. For the same compound, in assay [19], the GI50 is > 100 µM (inactive).
As to `N#CC(C#N)=C1/C(=C/C=C/C=C/C=C/c2ccc(N3CCCCC3)s2)S(=O)(=O)c2ccccc21`, the GI50 is > 100 µM (inactive) in assay [1]; > 100 µM (inactive) in [2]; > 100 µM (inactive) in [3]; > 100 µM (inactive) in assay [4]; > 100 µM (inactive) in assay [5]; 45.3 µM (inactive) in assay [6]. For the same compound, the GI50 is 95.9 µM (inactive) in [7]; > 100 µM (inactive) in [8]; > 100 µM (inactive) in assay [9]; 46.7 µM (inactive) in assay [10]; > 100 µM (inactive) in [11]; > 100 µM (inactive) in assay [12]. For the same compound, the GI50 in [13], in assay [14], in assay [15], in assay [16], in [17] and in [18] was > 100 µM (inactive) throughout. Further, the GI50 in assay [19] is 81.3 µM (inactive).
Take `C[C@H](CCc1nc(C#N)c(N)o1)[C@H]1CC[C@H]2[C@@H]3CCC4C[C@@H](O)CC[C@]4(C)[C@H]3C[C@@H](O)[C@]12C` (stereo not given in full): the GI50 in assay [1] was 4.46 µM (inactive); in assay [2], 12.6 µM (inactive); in assay [3], 10.7 µM (inactive); in assay [4], 15.4 µM (inactive); in assay [5], 13.5 µM (inactive); in assay [6], 16.4 µM (inactive). Also, the GI50 is 14.4 µM (inactive) in assay [7]; 0.475 µM (active) in [8]; 10.7 µM (inactive) in assay [9]; 12.5 µM (inactive) in assay [10]; 7.71 µM (inactive) in [11]; 18.7 µM (inactive) in [12]. The GI50 is 14.4 µM (inactive) in assay [13]; 12.1 µM (inactive) in [14]; 12.6 µM (inactive) in [15]; 14.6 µM (inactive) in [16]; 8.38 µM (inactive) in [17]; 10.3 µM (inactive) in [18]. The GI50 in assay [19] was 14.7 µM (inactive).
With `CC[C@@]1(O)C(=O)OCc2c1cc1n(c2=O)Cc2c-1nc1ccccc1c2/C=N\NC(=O)C(N)Cc1c[nH]c2ccccc12` (stereo not given in full), the GI50 in assay [1] was 0.239 µM (active); in assay [2], 0.61 µM (active); in assay [3], 0.108 µM (active); in assay [4] it was 0.332 µM (active); in [5] it was 3.74 µM (inactive); in [6], < 0.0198 µM (active). Also, the GI50 in [7] was 3.8 µM (inactive); in assay [8], 0.0638 µM (active); in assay [9] it was 2.84 µM (inactive); in [10], 0.0502 µM (active); in [11], 0.0675 µM (active); in [12], 0.499 µM (active). Besides, the GI50 in assay [13] was 0.0887 µM (active); in assay [14], 0.0528 µM (active); in [15], 0.521 µM (active); in assay [16] it was 0.0668 µM (active); in [17], 1.11 µM (active); in [18], 0.0745 µM (active). The GI50 in assay [19] was 20 µM (inactive).
Take `CCOP(=O)(O)C(Nc1ccc(/N=N/c2ccccc2)cc1)c1ccc(C(Nc2ccc(/N=N/c3ccccc3)cc2)P(=O)(O)OCC)cc1` (stereo not given): the GI50 in [1] is 19.6 µM (inactive); in assay [2], 16.7 µM (inactive); in assay [3], 19.2 µM (inactive); in [4], 15.7 µM (inactive); in assay [5], 18.3 µM (inactive); in assay [6], 21.5 µM (inactive). For the same compound, the GI50 was 22.1 µM (inactive) in [7]; 17.1 µM (inactive) in [8]; 16.5 µM (inactive) in assay [9]; 18.1 µM (inactive) in assay [10]; 15.6 µM (inactive) in [11]; 32 µM (inactive) in assay [12]. Besides, the GI50 in assay [13] is 18.9 µM (inactive); in [14] it was 19.2 µM (inactive); in [15], 16.6 µM (inactive); in [16], 48.3 µM (inactive); in [17], 40.3 µM (inactive); in assay [18] it was 14.7 µM (inactive). Moreover, in assay [19], the GI50 is 36.2 µM (inactive).
On to `CC(=O)Oc1cccc2c1C(=O)c1c(OC(C)=O)cc(C)cc1C2=O`, for which the GI50 is 29 µM (inactive) in assay [1]; 37 µM (inactive) in assay [2]; 51.2 µM (inactive) in assay [3]; 81.7 µM (inactive) in [4]; 39.6 µM (inactive) in assay [5]; 30.3 µM (inactive) in [6]. In addition, the GI50 in [7] was 70.6 µM (inactive); in assay [8], 23.6 µM (inactive); in [9] it was 39.5 µM (inactive); in assay [10], 30.2 µM (inactive); in [11], 69 µM (inactive); in assay [12], 37.8 µM (inactive). Besides, the GI50 in assay [13] was 29.1 µM (inactive); in [14], 32.7 µM (inactive); in assay [15], 29 µM (inactive); in assay [16], 46 µM (inactive); in assay [17] it was > 100 µM (inactive); in assay [18] it was 36 µM (inactive). The GI50 in assay [19] was > 100 µM (inactive).
